From ChEMBL document CHEMBL1201862, “PubChem BioAssay data set” (2004)
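Where inhibition never reached the appropriate level, the endpoint shown equals the highest concentration tested. Otherwise, values were interpolated linearly from a five-concentration, 48-hour dose response in 96-well plates. GI50 = concentration required for 50% inhibition of growth.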 The source made the active and inactive calls. Rule as the data show it: active = GI50 up to about 1.1 µM and inactive = higher.

Key:
Experiment in all cases: NCI anticancer screen, dose series, 48 h
SN12C = test system: SN12C
IGROV-1 = test system: IGROV-1
SF-539 = test system: SF-539
SK-MEL-5 = test system: SK-MEL-5
RXF 393 = test system: RXF 393
HL-60 = test system: HL-60
LOX IMVI = test system: LOX IMVI
SK-MEL-28 = test system: SK-MEL-28
Malme-3M = test system: Malme-3M
SF-268 = test system: SF-268
SNB-75 = test system: SNB-75
EKVX = test system: EKVX
NCI/ADR-RES = test system: NCI/ADR-RES
NCI-H23 = test system: NCI-H23
SNB-19 = test system: SNB-19
RPMI-8226 = test system: RPMI-8226
786-0 = test system: 786-0
UACC-62 = test system: UACC-62
HCT-116 = test system: HCT-116

Measured: GI50

C=CCn1c(=O)c(Br)nn(CCOCP(=O)(OCC)OCC)c1=O
inactive: SN12C > 100 µM | IGROV-1 > 100 µM | SF-539 > 100 µM | SK-MEL-5 61.2 µM | RXF 393 > 100 µM | HL-60 > 100 µM | LOX IMVI > 100 µM | SK-MEL-28 > 100 µM | Malme-3M > 100 µM | SF-268 > 100 µM | SNB-75 > 100 µM | EKVX > 100 µM | NCI/ADR-RES > 100 µM | NCI-H23 > 100 µM | SNB-19 > 100 µM | RPMI-8226 > 100 µM

CC(=O)/C=C1\Nc2ccccc2N\C1=C/C(C)=O
inactive: SN12C 25.7 µM | 786-0 18.5 µM | IGROV-1 18.8 µM | SF-539 30.3 µM | SK-MEL-5 16.8 µM | RXF 393 19.1 µM | HL-60 23.9 µM | UACC-62 20.1 µM | LOX IMVI 24.5 µM | SK-MEL-28 41.7 µM | Malme-3M 23 µM | SF-268 23.5 µM | SNB-75 26.9 µM | EKVX 27.5 µM | NCI/ADR-RES 29 µM | NCI-H23 31.2 µM | HCT-116 16.9 µM | SNB-19 38.5 µM | RPMI-8226 19.5 µM

Nc1nc(-c2ccccc2)nc2oc(-c3cccs3)nc12
inactive: SN12C > 100 µM | 786-0 > 100 µM | IGROV-1 > 100 µM | SF-539 > 100 µM | SK-MEL-5 > 100 µM | RXF 393 > 100 µM | HL-60 > 100 µM | UACC-62 > 100 µM | LOX IMVI > 100 µM | SK-MEL-28 > 100 µM | SF-268 > 100 µM | SNB-75 > 100 µM | EKVX > 100 µM | NCI/ADR-RES > 100 µM | NCI-H23 > 100 µM | HCT-116 > 100 µM | SNB-19 > 100 µM | RPMI-8226 > 100 µM

COc1ccc(-n2c(N)c(C#N)c(C#N)c2-c2ccccc2)cc1
inactive: SN12C > 100 µM | 786-0 45.3 µM | IGROV-1 24.2 µM | SF-539 11 µM | SK-MEL-5 51.6 µM | RXF 393 23.8 µM | HL-60 > 100 µM | UACC-62 10.7 µM | LOX IMVI > 100 µM | Malme-3M > 100 µM | SF-268 31.1 µM | SNB-75 2.74 µM | EKVX > 100 µM | NCI/ADR-RES > 100 µM | NCI-H23 > 100 µM | HCT-116 > 100 µM | SNB-19 29.6 µM | RPMI-8226 > 100 µM

Cc1ccc(S(=O)(=O)NNC(C[N+](=O)[O-])c2ccccc2)cc1 (stereo not drawn)
inactive: SN12C 32 µM | 786-0 22.6 µM | IGROV-1 7.23 µM | SF-539 27.1 µM | SK-MEL-5 19.4 µM | RXF 393 2.94 µM | HL-60 3.71 µM | UACC-62 26.1 µM | LOX IMVI 3.64 µM | Malme-3M 29 µM | SF-268 15.3 µM | SNB-75 22.7 µM | EKVX 75.5 µM | NCI/ADR-RES 54.6 µM | NCI-H23 43 µM | HCT-116 4.14 µM | SNB-19 7.14 µM | RPMI-8226 3.56 µM

CCCCN(C)C(=O)C1=C(C)NC(C)=C(C(=O)N(C)CCCC)C1
inactive: SN12C > 100 µM | 786-0 > 100 µM | IGROV-1 > 100 µM | SF-539 > 100 µM | SK-MEL-5 > 100 µM | RXF 393 > 100 µM | HL-60 54.1 µM | UACC-62 > 100 µM | LOX IMVI > 100 µM | SK-MEL-28 > 100 µM | SF-268 > 100 µM | SNB-75 50.7 µM | EKVX > 100 µM | NCI/ADR-RES > 100 µM | NCI-H23 > 100 µM | HCT-116 > 100 µM | SNB-19 > 100 µM | RPMI-8226 > 100 µM

N#Cc1c(C#N)c(-c2ccccc2)n(/N=C\c2ccccc2)c1N
inactive: SN12C 47 µM | 786-0 28.1 µM | IGROV-1 15.6 µM | SF-539 15.9 µM | SK-MEL-5 11.4 µM | RXF 393 17.9 µM | HL-60 16.1 µM | UACC-62 12.5 µM | LOX IMVI 8.02 µM | Malme-3M 29.9 µM | SF-268 28.8 µM | SNB-75 19.1 µM | EKVX 13.6 µM | NCI/ADR-RES 11.2 µM | NCI-H23 24.4 µM | HCT-116 29.4 µM | SNB-19 30.8 µM | RPMI-8226 3.46 µM

CNNC1=NS(=O)(=O)c2cc(C(=O)OC)c(Cl)cc2S1
inactive: SN12C > 10 µM | 786-0 > 10 µM | IGROV-1 > 10 µM | SF-539 > 10 µM | SK-MEL-5 > 10 µM | RXF 393 > 10 µM | HL-60 > 10 µM | UACC-62 > 10 µM | LOX IMVI > 10 µM | SK-MEL-28 > 10 µM | Malme-3M > 10 µM | SF-268 > 10 µM | SNB-75 > 10 µM | EKVX > 10 µM | NCI/ADR-RES > 10 µM | NCI-H23 > 10 µM | HCT-116 > 10 µM | SNB-19 > 10 µM | RPMI-8226 > 10 µM

CCOC(=O)c1c(-c2ccc(Cl)cc2)c(C#N)c(=S)n(C2OC(CO)C(O)C(O)C2O)c1-c1ccccc1 (stereo not drawn)
inactive: SN12C 38.4 µM | 786-0 26.7 µM | IGROV-1 33.7 µM | SF-539 19.5 µM | SK-MEL-5 15.6 µM | RXF 393 23 µM | HL-60 > 10 µM | UACC-62 18.7 µM | LOX IMVI 14.6 µM | SK-MEL-28 17.3 µM | Malme-3M 40.8 µM | SF-268 28.1 µM | SNB-75 27.9 µM | NCI/ADR-RES 46.9 µM | NCI-H23 30.3 µM | HCT-116 18.7 µM | SNB-19 22.8 µM | RPMI-8226 34.7 µM

COc1ccc(Nc2cc(O)nc(O)n2)cc1
inactive: SN12C > 100 µM | 786-0 > 100 µM | IGROV-1 > 100 µM | SF-539 > 100 µM | SK-MEL-5 > 100 µM | RXF 393 24.7 µM | HL-60 > 100 µM | LOX IMVI > 100 µM | SK-MEL-28 > 100 µM | Malme-3M > 100 µM | SF-268 > 100 µM | SNB-75 84.3 µM | EKVX > 100 µM | NCI/ADR-RES > 100 µM | NCI-H23 > 100 µM | HCT-116 > 100 µM | SNB-19 > 100 µM | RPMI-8226 > 100 µM

Oc1ccc(/C=C/c2cc(O)cc(O)c2)cc1 [RESVERATROL]
inactive: SN12C 42.8 µM | SF-539 29.6 µM | RXF 393 40.9 µM | HL-60 20.4 µM | UACC-62 41.2 µM | SK-MEL-28 > 100 µM | SF-268 > 100 µM | SNB-75 95.1 µM | EKVX 81.5 µM | NCI/ADR-RES 19.6 µM | NCI-H23 46 µM | SNB-19 > 100 µM | RPMI-8226 8.63 µM
